Legend:
Assay type in all cases: physicochemical
[1] = Thermogravimetric analysis (TGA); conditions: up to 200° C.
Description: Thermal Gravimetric Analysis
Thermal Gravimetric Analysis (TGA) was performed using a TA Instruments Discovery thermographic analyzer, with temperature calibration being performed using nickel and Alumel™. Each sample was placed in a pan, hermetically sealed, the lid pierced, and then inserted into the thermal gravimetric furnace which was heated under nitrogen.

[2] = Exposure to elevated relative humidity, form checked by XRPD; conditions: 93% relative humidity, four days, ambient temperature
Description: XRPD patterns were obtained with a PANalytical X′Pert PRO MPD diffractometer using an incident beam of Cu radiation (1.54059 angstroms) produced using an Optix long, fine-focus source. The diffractometer was configured using the symmetric Bragg-Brentano geometry. Prior to analysis, a silicon sample (NIST SRM 640e) was analyzed to verify the observed position of the Si 111 peak was consistent with the NIST-certified position. A specimen of the sample was prepared as a thin, circular layer centered on a silicon zero-background substrate. Antiscatter slits (SS) were used to minimize the background generated by air. Soller slits for the incident and diffracted beams were used to minimize broadening fro axial divergence. Diffraction patterns were collected using a scanning position-sensitive detector located 240 mm from the sample.

[3] = Dynamic vapor sorption/desorption (DVS) isotherm
Description: Dynamic Vapor Sorption/Desorption (DVS)
Dynamic Vapor Sorption/Desorption (DVS) data was collected on a VTI SGA-100 Vapor Sorption Analyzer, using NaCl and PVP as calibration standards. Samples were not dried prior to analysis. Sorption and desorption data were collected over a range from 5% to 95% relative humidity (RH) at 10% RH increments under a nitrogen purge. The equilibrium criterion used for analysis was less than 0.01000% weight change in 5 minutes with a maximum equilibration time of 3 hours. Data were not corrected for the initial moisture content of the samples.

weight loss (TGA) [1]: ≤ 0.20%
phase change after DVS testing, by XRPD analysis ([3]; sample evaluated after exposure to humidity in the DVS testing): a phase change did not occur
hygroscopicity (DVS: weight gain in each sorption cycle, hysteresis upon desorption) ([3]; sorption/desorption 5% to 95% RH): not hygroscopic
weight percent change (DVS isotherm) ([3]; up to a percent relative humidity of about 95% (94.79%)): ≤ 0.31 wt %
Structure (SMILES): C=CC(=O)N1CCN(CCCn2c(=O)c(-c3c(Cl)c(OC)cc(OC)c3Cl)cc3cnc(NC)nc32)CC1 [Form 1, 6-(2,6-dichloro-3,5-dimethoxyphenyl)-2-(methylamino)-8-[3-[4-(prop-2-enoyl)piperazin-1-yl]propyl]-7H,8H-pyrido[2,3-d]pyrimidin-7-one]
change in form observable by XRPD (physical stability at elevated humidity) [2]: did not result in any changes in form observable by XRPD
